Values of other authors in patent US20140323416A1, “5-METHYLDIHYDROMORPHONE COMPOUNDS FOR TREATMENT OF PAIN” (priority 2013, published 2014).

## CN1CC[C@]23c4c5ccc(O)c4O[C@@]2(C)C(=O)CC[C@H]3[C@H]1C5 [Metopon, metopon]
In vivo
  bioavailability: low bioavailability
  emetic action: nearly devoid of emetic action
Relative to morphine
  analgesic effectiveness: at least double to that of morphine
  duration of action: about equal to that of morphine
  physical dependence: built up more slowly than with morphine
  potency: reduced potency relative to morphine
  tolerance: develop more slowly and to disappear more quickly
Therapeutic analgesic doses
  respiratory depression: little or no respiratory depression
Therapeutic analgesic doses, relative to morphine
  mental dullness: much less mental dullness than morphine
